{"source": "patent US9375438B2", "about": "“Inhibitors of NCCa-ATP channels for therapy” (University of Maryland, Baltimore, priority 2007, dated 2016)", "key": {"[1]": {"tested_on": "rats with hemi-cervical spinal cord contusion (SCI)", "assay": "SCI model: extravasated blood in cord (tissue blood)", "type": "in vivo, rat", "details": "for PHN: following SCI (summary)", "procedure": "(§1) SCI injury model. This study was performed in accordance with the guidelines of the Institutional Animal Care and Use Committee. Adult female Long-Evans rats (275-350 gm) were anesthetized (Ketamine, 60 mg/kg plus Xylazine, 7.5 mg/kg, i.p.). The dura at C4-5 was exposed via a left hemilaminectomy. A hemi-cervical spinal cord contusion was created using a blunt force impactor (1.3-mm impactor head driven by a 10 gm weight dropped vertically 25 mm) (Soblosky et al., 2001; Gensel et al., 2006). After SCI, animals were given 10 ml of glucose-free normal saline s.q. Rectal temperature was maintained at ˜37° C. using a servo-controlled warming blanket.\n(§2) For in vivo gene suppression of SUR1, we used oligodeoxynucleotides that were phosphorothioated at 4 distal bonds to protect against endogenous nucleases (35).\nTissue blood. Rats were sacrificed at various times after SCI (n=5-11 rats/group), were perfused with heparinized saline to remove intravascular blood, and 5-mm segments of cord encompassing the lesion were homogenized and processed as described (Choudhri et al., 1997)."}, "[2]": {"tested_on": "rats with hemi-cervical spinal cord contusion (SCI)", "assay": "SCI model: lesion size", "type": "in vivo, rat", "details": "following SCI; compared to controls (summary)", "procedure": "as §1, with “blanket. Blood gases and serum glucose 10-15 min post-SCI were: pO2, 95±6 mm Hg; pCO2, 46±3 mm Hg; pH, 7.33±0.01; glucose 258±17 mg/dl in controls and pO2, 96±7 mm Hg; pCO2, 45±2 mm Hg; pH, 7.37±0.01; glucose 242±14 mg/dl in glibenclamide-treated animals.” for “blanket.”\nDrug delivery. […] During the course of the project, slightly different formulations of drug were used, with the best results obtained using stock solutions made by placing 50 mg (or 25 mg) of drug into 10 ml DMSO, and infusion solutions made by placing 400 μl (or 800 μl) stock into 4.6 ml (or 4.2 ml) unbuffered saline (0.9% NaCl) and adjusting the pH to ˜8.5 using 0.1 N NaOH.\nLesion size. At 7 d post-SCI, cords were paraffin sectioned and stained with H&E. Lesion volumes were calculated from lesion areas measured on serial sections every 250 μm.\n(§3) Immunohistochemistry. Cryosections were immunolabeled (Chen et al., 2003; Simard et al., 2006) using primary antibodies directed against SUR1 (Santa Cruz, C-16; 1:200; 1 h at RT, 48 h at 4° C.), SUR2 (Santa Cruz, H-80; 1:200; 1 h at RT, 48 h at 4° C.), GFAP (Sigma, C-9205; 1:500), and vimentin (Sigma, monoclonal CY3 conjugated; 1:100). Quantitative immunofluorescence was performed as described (Gerzanich et al., 2003)."}, "[3]": {"tested_on": "rats with hemi-cervical spinal cord contusion (SCI)", "assay": "SCI model: neurobehavioral assessment (inclined plane, paw placement, rearing)", "type": "in vivo, rat", "procedure": "as §1, §2\nNeurobehavioral Assessment. All measurements were performed by blinded evaluators. Performance on the inclined plane was evaluated as described (Rivlin and Tator, 1977). To assess paw placement and vertical exploration (rearing) (Nikulina et al., 2004) animals were videotaped while in a translucent cylinder (19×20 cm). Rearing was quantified as the number of seconds spent with both front paws elevated above shoulder-height during a 3-min period of observation."}, "[4]": {"tested_on": "SUR1", "assay": "SUR1 knock-down in gliotic capsule (gelatin sponge implant), Western blot and astrocyte patch clamp", "type": "in vivo, rat", "details": "vs Scr-ODN", "procedure": "To validate the antisense strategy, it was first implemented in the model that was originally used for the discovery of the NCCa-ATP channel, wherein a gelatin sponge is implanted into the parietal lobe to stimulate formation of a gliotic capsule (Chen and Simard, 2001). Here, animals were also fitted with mini-osmotic pumps that delivered oligodeoxynucleotides (ODN), either antisense (AS) or scrambled (Scr), continuously for 7 d into the injury site.\nSUR1 knock-down in astrocytes was performed in triplicates by implanting rats with gelatin sponges in the parietal lobe to induce formation of a gliotic capsule containing reactive astrocytes that express the SUR1-regulated NCCa-ATP channel (Chen and Simard, 2001; Chen et al., 2003). At the same time, they were implanted with mini-osmotic pumps (Alzet, model 2002; 14-day pump) placed in the dorsal thoracolumbar region that contained ODN (711 μg/ml delivered @ 0.5 μl/h, yielding 1500 picomoles/day), with the delivery catheter placed directly into the site of the gelatin sponge implant in the brain. Animals were infused with Src-ODN or AS-ODN, as above but not phosphorothioated. After 10-14 days, the gelatin sponge plus encapsulating gliotic tissues were harvested and processed either for Western immunoblots or to obtain fresh reactive astrocytes for patch clamp electrophysiology. […]"}, "[5]": {"tested_on": "SUR1", "assay": "SCI model: SUR1 immunolabeling of cord after i.v. ODN", "type": "in vivo, rat", "procedure": "as §1, with “blanket. Blood gases and serum glucose 10-15 min post-SCI were: pO2, 95±6 mm Hg; pCO2, 46±3 mm Hg; pH, 7.33±0.01; glucose 258±17 mg/dl in controls and pO2, 96±7 mm Hg; pCO2, 45±2 mm Hg; pH, 7.37±0.01; glucose 242±14 mg/dl in glibenclamide-treated animals.” for “blanket.”\nFor in vivo gene suppression of SUR1, we used oligodeoxynucleotides that were phosphorothioated at 4 distal bonds to protect against endogenous nucleases (35). Within a few min of SCI, mini-osmotic pumps (Alzet 2002, 0.5 μl/h; Durect Corporation) with jugular vein catheters were implanted that delivered either scrambled sequence ODN (Scr-ODN) (5′-[…]-3′; SEQ ID NO:1) or antisense ODN (AS-ODN) (5′-[…]-3′; SEQ ID NO:2) (Yokoshiki et al., 1999) in PBS at a rate of 1 mg/rat/24 h.\nas §3"}, "[6]": {"molecular_target": "SUR1-regulated NCCa-ATP channels (Rattus norvegicus, UniProt Q09429)", "details": "read-out: EC50, block of NCCa-ATP channel; cited from earlier work"}, "[7]": {"molecular_target": "T1, SUR1-regulated NCCa-ATP channel in human aortic endothelial cells (Homo sapiens, UniProt Q09428)", "T1 construct": "host or cells: human aortic endothelial cells cultured under hypoxia", "T1 sequence (Q09428 whole entry)": "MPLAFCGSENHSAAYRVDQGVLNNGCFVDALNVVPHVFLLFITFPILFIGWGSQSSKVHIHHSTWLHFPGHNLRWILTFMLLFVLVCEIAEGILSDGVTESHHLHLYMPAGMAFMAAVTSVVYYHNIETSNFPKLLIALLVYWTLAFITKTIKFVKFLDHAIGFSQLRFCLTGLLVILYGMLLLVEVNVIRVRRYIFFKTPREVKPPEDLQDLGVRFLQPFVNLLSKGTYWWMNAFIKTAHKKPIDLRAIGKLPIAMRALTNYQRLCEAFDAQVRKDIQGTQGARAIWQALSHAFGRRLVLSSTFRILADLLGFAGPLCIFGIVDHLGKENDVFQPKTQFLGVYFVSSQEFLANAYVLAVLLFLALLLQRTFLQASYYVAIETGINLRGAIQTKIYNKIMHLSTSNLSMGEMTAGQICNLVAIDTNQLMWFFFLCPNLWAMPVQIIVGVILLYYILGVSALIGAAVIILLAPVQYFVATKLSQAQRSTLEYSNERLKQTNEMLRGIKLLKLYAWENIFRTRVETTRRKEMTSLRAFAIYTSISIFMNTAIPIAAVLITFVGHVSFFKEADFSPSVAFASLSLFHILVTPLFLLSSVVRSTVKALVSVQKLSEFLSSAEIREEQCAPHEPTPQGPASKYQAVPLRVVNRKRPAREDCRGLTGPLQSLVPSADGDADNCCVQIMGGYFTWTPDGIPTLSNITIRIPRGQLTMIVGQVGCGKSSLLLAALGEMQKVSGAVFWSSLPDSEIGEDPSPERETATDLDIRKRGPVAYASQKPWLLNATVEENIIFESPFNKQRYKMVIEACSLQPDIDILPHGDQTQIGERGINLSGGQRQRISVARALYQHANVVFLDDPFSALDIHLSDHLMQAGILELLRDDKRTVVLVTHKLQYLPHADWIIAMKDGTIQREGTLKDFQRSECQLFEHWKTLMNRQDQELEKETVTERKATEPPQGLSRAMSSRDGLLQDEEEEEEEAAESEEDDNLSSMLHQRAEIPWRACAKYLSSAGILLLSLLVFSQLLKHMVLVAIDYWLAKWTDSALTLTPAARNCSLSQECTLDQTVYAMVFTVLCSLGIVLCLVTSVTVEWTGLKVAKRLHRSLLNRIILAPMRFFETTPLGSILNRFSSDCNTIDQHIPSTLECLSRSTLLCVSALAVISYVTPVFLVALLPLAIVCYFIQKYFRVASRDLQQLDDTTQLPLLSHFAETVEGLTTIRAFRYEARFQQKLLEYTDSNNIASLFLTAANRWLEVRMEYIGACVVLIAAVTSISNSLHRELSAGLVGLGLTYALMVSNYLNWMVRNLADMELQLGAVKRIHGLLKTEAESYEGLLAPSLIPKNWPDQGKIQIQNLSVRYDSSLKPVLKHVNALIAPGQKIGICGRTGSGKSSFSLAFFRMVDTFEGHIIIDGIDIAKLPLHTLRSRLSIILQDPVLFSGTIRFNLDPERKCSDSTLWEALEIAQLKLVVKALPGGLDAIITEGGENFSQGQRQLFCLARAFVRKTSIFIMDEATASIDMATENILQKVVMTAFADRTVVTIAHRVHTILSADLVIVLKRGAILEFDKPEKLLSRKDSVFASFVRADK", "T1 sequence (Q8TD43 whole entry partner)": "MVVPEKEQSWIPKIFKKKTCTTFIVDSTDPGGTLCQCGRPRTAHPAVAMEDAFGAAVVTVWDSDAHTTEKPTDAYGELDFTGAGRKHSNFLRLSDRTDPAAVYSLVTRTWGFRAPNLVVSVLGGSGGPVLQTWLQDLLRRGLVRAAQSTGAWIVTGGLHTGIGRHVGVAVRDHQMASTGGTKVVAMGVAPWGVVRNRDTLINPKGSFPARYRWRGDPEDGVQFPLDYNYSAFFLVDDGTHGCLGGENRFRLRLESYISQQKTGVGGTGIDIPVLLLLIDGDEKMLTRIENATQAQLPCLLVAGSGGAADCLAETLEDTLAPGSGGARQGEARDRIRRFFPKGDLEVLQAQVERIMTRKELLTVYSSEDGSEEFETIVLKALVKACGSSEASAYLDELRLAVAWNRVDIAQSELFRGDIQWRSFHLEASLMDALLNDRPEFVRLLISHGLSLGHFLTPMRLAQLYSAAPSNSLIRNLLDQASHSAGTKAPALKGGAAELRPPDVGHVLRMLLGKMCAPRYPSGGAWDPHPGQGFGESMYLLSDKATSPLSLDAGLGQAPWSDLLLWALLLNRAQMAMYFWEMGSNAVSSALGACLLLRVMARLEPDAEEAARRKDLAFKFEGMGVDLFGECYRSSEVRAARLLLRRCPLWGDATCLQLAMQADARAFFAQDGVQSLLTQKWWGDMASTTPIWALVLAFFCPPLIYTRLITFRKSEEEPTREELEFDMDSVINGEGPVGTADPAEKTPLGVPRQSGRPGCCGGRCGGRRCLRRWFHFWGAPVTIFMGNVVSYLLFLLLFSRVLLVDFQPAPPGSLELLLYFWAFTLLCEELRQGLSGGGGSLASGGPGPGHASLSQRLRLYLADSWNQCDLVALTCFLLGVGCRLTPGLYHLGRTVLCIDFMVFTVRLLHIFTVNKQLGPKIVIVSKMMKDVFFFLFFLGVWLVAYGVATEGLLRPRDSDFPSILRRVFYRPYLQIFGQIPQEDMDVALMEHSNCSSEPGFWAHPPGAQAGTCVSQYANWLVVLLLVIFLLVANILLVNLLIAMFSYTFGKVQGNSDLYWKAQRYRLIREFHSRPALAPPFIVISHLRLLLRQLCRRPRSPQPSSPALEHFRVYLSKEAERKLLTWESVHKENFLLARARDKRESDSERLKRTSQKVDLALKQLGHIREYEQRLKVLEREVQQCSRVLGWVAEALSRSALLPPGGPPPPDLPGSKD", "assay": "Perforated-patch whole-cell recording of endothelial cells, channel activation by diazoxide", "type": "cell-based", "procedure": "Patch clamp of endothelial cells was performed using a nystatin-perforated patch technique, to maintain the metabolic integrity of the cells. The identity of the activated channel can be assessed by measurement of the “reversal potential”, the potential at which an ion channel current reverses from inward to outward. With physiologically relevant concentrations of ions intracellularly and extracellularly (high potassium inside, high sodium outside), the reversal potential can unambiguously distinguish between a K^+ channel current such as KATP, which reverses negative to −50 mV and a non-selective cation channel current such as NCCa-ATP, which reverses near 0 mV.\nCell culture. Endothelial cell cultures from human brain microvessels, human aorta (ScienCell Research Laboratories), and murine brain microvessels (bEnd.3; ATCC), were grown at low density using media and supplements recommended by suppliers."}, "[8]": {"molecular_target": "native and recombinant β-cell KATP channels (Homo sapiens, UniProt Q09428)", "sequence (Q09428 whole entry)": "as the sequence (Q09428 whole entry) above", "sequence (Q14654 whole entry partner)": "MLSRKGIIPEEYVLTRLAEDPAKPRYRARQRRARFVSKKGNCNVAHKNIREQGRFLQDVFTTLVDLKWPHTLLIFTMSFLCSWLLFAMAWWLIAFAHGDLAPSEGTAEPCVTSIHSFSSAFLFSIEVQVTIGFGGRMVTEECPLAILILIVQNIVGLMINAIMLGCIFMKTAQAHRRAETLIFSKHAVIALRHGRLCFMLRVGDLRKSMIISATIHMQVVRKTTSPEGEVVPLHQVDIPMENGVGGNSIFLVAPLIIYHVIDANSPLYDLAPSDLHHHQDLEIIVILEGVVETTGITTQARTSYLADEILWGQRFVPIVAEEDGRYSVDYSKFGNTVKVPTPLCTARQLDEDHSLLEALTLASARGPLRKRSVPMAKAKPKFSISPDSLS", "details": "read-out: IC50, block of native and recombinant β-cell KATP channels; cited from earlier work"}, "[9]": {"details": "1 d post-SCI, ODN i.v., vs Scr-ODN"}, "[10]": {"details": "repaglinide 200 ng/h s.q., n=3-8/group"}}, "data": [{"compound": "5′-GGCCGAGTGGTTCTCGGT-3′ (DNA, backbone and methylation of C not given here; phosphorothioate at 4 distal bonds) [AS-ODN]", "values": [{"measurement": "blood in cord homogenates (effect)", "setting": "[1]; [9]", "value": "reduced"}, {"measurement": "PHN", "setting": "[1]", "value": "significantly reduced"}, {"measurement": "reduction in lesion volume", "setting": "[2]", "value": 3, "unit": "fold"}, {"measurement": "performance in vertical exploration", "setting": "[3]; [9]", "value": "significantly better performance"}, {"measurement": "performance on the inclined plane", "setting": "[3]; [9]", "value": "significantly better performance"}, {"measurement": "SUR1 protein in gliotic capsule (Western blot)", "setting": "[4]; ODN infused into injury site", "value": "significant reduction"}, {"measurement": "astrocyte depolarization on ATP depletion by Na azide", "setting": "[4]; astrocytes from gliotic capsule", "value": "depolarized only slightly or not at all"}, {"measurement": "SUR1 immunolabeling of cord", "setting": "[5]; 6 h post-SCI, ODN i.v. 1 mg/rat/24 h, vs controls", "value": "significantly less immunolabeling"}, {"measurement": "normal expression of SUR1 in dorsal horn cells", "setting": "[5]; post-SCI, ODN i.v.", "value": "did not affect"}, {"measurement": "necrotic void beneath impact site", "setting": "[5]; post-SCI, ODN i.v., vs Scr-ODN", "value": "no necrotic void was evident"}]}, {"compound": "Nc1ncnc2c1ncn2[C@@H]1O[C@H](COP(=O)(O)OP(=O)(O)OP(=O)(O)O)[C@@H](O)[C@H]1O", "note": "[ATP]", "values": [{"measurement": "EC50", "setting": "[6]", "value": 790, "unit": "nM"}]}, {"compound": "CC1=NS(=O)(=O)c2cc(Cl)ccc2N1", "note": "[diazoxide]", "values": [{"measurement": "current activated by diazoxide", "setting": "[7]; endothelial cells cultured under hypoxic conditions", "value": "activated an ohmic current that reversed near 0 mV"}, {"measurement": "current activated by diazoxide", "setting": "[7]; endothelial cells cultured under normoxic conditions", "value": "either had no effect or, in half of the cells, activated an outwardly rectifying current"}]}, {"compound": "CCOc1cc(CC(=O)N[C@@H](CC(C)C)c2ccccc2N2CCCCC2)ccc1C(=O)O", "note": "[repaglinide]", "values": [{"measurement": "blood in cord homogenates", "setting": "[1]; 1 d post-SCI, repaglinide 200 ng/h s.q., 5-8 rats/group", "value": "1.2 ± 0.1", "unit": "µL"}, {"measurement": "PHN", "setting": "[1]", "value": "significantly reduced"}, {"measurement": "reduction in lesion volume", "setting": "[2]", "value": 3, "unit": "fold"}, {"measurement": "vertical exploration", "setting": "[3]; repaglinide 200 ng/h s.q., 5-6 rats/group", "value": "27 ± 6", "unit": "s"}, {"measurement": "inclined plane, head down", "setting": "[3]; [10]", "value": "47±3", "unit": "degrees"}, {"measurement": "inclined plane, head up", "setting": "[3]; [10]", "value": "62±2", "unit": "degrees"}, {"measurement": "IC50", "setting": "[8]", "value": "0.9 to 7", "unit": "nM"}]}]}
